# Earlier results, collected in patent US20040121407A1, “Regulation of the growth hormone/IGF-1 axis” (ELIXIR PHARMACEUTICALS, INC., priority 2002, published 2004).
# Columns and labels:
# human SST2 = human SST2 (Homo sapiens, UniProt P30874)
# IGF-1 levels = conditions: administered subcutaneously
# Chain of human SST2 (P30874 whole entry): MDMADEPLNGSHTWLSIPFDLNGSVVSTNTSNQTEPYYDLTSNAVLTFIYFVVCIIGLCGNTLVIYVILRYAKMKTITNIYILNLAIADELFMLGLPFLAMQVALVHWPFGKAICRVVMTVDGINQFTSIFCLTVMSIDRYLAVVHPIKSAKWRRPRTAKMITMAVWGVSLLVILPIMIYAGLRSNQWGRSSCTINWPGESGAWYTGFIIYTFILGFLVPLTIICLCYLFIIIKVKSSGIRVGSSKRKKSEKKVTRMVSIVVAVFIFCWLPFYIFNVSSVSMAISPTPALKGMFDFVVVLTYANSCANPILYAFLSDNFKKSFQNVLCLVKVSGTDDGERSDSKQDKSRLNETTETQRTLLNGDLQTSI
molecule,measurement,setting,value
"CC(C)(C)OC(=O)[C@H](CCCCN)NC(=O)[C@@H](Cc1c[nH]c2ccccc12)NC(=O)N1CCC(n2c(=O)[nH]c3ccccc32)CC1 [L-054,522]",selectivity,human SST2,highly selective
"Pegvisomant: modified human GH in which nine amino acids have been replaced, with polyethylene glycol polymers; GH receptor antagonist",IGF-1 levels,IGF-1 levels,dose dependent reduction
"[N-acetyl-Tyr^1,D-Arg^2] GHRH^1-29NH2 [standard GHRH antagonist]",human GH secretory response to exogenous GHRH,GH secretion; exogenous GHRH,inhibits
same,spontaneous GH secretion,GH secretion; in vivo,lowers
